The values that follow are results of earlier work, collected in patent US8153109B2, “Alkylene carbonate dilution, alkylene carbonate for preparing the dilution, and aqueous reducing chemical agent” (San-Ei Kagaku Co., Ltd., priority 2006, dated 2012).

The conditions of this data set: test day 10, emulsified chemical agent, in some cases.

Turning to `O=C1OCCC1S` (stereo not shown) [2-mercapto-4-butyrolactone], the “percent decomposition of 2-mercapto-4-butyrolactone” value was “about 30%”.
